Assay results taken from patent publication US8642601B2, “Inhibitors of JNK” (Roche Palo Alto LLC, priority 2010, dated 2014).
pIC50: −log10 of the molar value. Structures can show the parent of a compound that is named as a salt.

Key:
[1] = test system: T1, JNK; experiment: JNK Assay in vitro (phosphorylation of GST-ATF2 (19-96) with [γ-33P] ATP); format: biochemical; conditions: JNK isoform not stated for Table 1 (method describes human JNK1α1, JNK2α2, JNK3); Km concentrations of ATP and substrate
T1 construct: Human JNK2α2 assay contains 1 nM enzyme; Human JNK1α1 assay contains 2 nM enzyme
Procedure: JNK activity was measured by phosphorylation of GST-ATF2 (19-96) with [γ-^33P] ATP. The enzyme reaction was conducted at Km concentrations of ATP and the substrate at final volume of 40 μl in buffer containing 25 mM HEPES, pH 7.5, 2 mM dithiothreitol, 150 mM NaCl, 20 mM MgCl2, 0.001% Tween® 20, 0.1% BSA and 10% DMSO. Human JNK2α2 assay contains 1 nM enzyme, 1 μM ATF2, 8 μM ATP with 1 uCi [γ-^33P] ATP. Human JNK1α1 assay contains 2 nM enzyme, 1 μM ATF2, 6 μM ATP with 1 μCi [γ-^33P] ATP. Human JNK3 (Upstate Biotech #14-501M) assay contains 2 nM enzyme, 1 μM ATF2, 4 μM ATP with 1 μCi [γ-^33P] ATP. The enzyme assay was carried out in the presence or absence of several compound concentrations. JNK and compound were pre-incubated for 10 min., followed by initiation of the enzymatic reaction by adding ATP and the substrate. The reaction mixture was incubated at 30° C. for 30 min. At the end of incubation, the reaction was terminated by transferring 25 μl of the reaction mixture to 150 μl of 10% glutathione Sepharose® slurry (Amersham #27-4574-01) containing 135 mM EDTA. The reaction product was captured on the affinity resin, and washed on a filtration plate (Millipore, MABVNOB50) with phosphate buffered saline for six times to remove free radionucleotide. The incorporation of ^33P into ATF2 was quantified on a microplate scintillation counter (Packard Topcount). Compound inhibition potency on JNK was measured by IC50 value generated from ten concentration inhibition curves fitted into the 3-parameter model: % inhibition=Maximum/(1+(IC50/[Inhibitor])^slope). Data were analyzed on Microsoft Excel for parameter estimation.

| SMILES | melting point | pIC50 [1] |
| --- | --- | --- |
| CCN1CCC[C@@H](NC(=O)[C@H]2CC[C@H](Nc3nccc(-n4ccc5c(OCCCS(C)(=O)=O)cccc54)n3)CC2)C1 (as salt: HCl) [Compound 15, 4-{4-[4-(3-Methanesulfonyl-propoxy)-indol-1-yl]-pyrimidin-2-ylamino}-cyclohexanecarboxylic acid ((R)-1-ethyl-piperidin-3-yl)-amide] | 180 to 185 °C | – |
| C[C@@H]1CN(C(=O)[C@H]2CC[C@H](Nc3nccc(-n4ncc5c(OCCCS(C)(=O)=O)cccc54)n3)CC2)CCN1 (as salt: HCl) [Compound 24, (4-{4-[4-(3-Methanesulfonyl-propoxy)-indazol-1-yl]-pyrimidin-2-ylamino}-cyclohexyl)-((R)-3-methyl-piperazin-1-yl)-methanone] | 245 to 250 °C | – |
| CCOC1CC2CCC(C1)N2C(=O)[C@H]1CC[C@H](Nc2nccc(-n3ccc4c(OCCCS(C)(=O)=O)cccc43)n2)CC1 (stereo partly drawn) (as salt: salt) [Compound 26, (3-Ethoxy-8-aza-bicyclo[3.2.1]oct-8-yl)-(4-{4-[4-(3-methanesulfonyl-propoxy)-indol-1-yl]-pyrimidin-2-ylamino}-cyclohexyl)-methanone; compound with formic acid] | 125 to 130 °C | – |
| CCCN1CCC[C@H](NC(=O)[C@H]2CC[C@H](Nc3nccc(-n4ccc5c(OCCCS(C)(=O)=O)cccc54)n3)CC2)C1 (stereo in doubt) (as salt: HCl) [Compound 14, 4-{4-[4-(3-Methanesulfonyl-propoxy)-indol-1-yl]-pyrimidin-2-ylamino}-cyclohexanecarboxylic acid ((R)-1-propyl-piperidin-3-yl)-amide] | 185 to 190 °C | – |
| CS(=O)(=O)CCCOc1cccc2c1ccn2-c1ccnc(N[C@H]2CC[C@H](C(=O)N3CCC[C@H](C(=O)O)C3)CC2)n1 [Compound 4, (S)-1-(4-{4-[4-(3-Methanesulfonyl-propoxy)-indol-1-yl]-pyrimidin-2-ylamino}-cyclohexanecarbonyl)-piperidine-3-carboxylic acid] | 270 to 276 °C | 6.97 |
| CCN1CC[C@@H](NC(=O)[C@H]2CC[C@H](Nc3nccc(-n4ccc5c(OCCCS(C)(=O)=O)cccc54)n3)CC2)C1 [Compound 12, 4-{4-[4-(3-Methanesulfonyl-propoxy)-indol-1-yl]-pyrimidin-2-ylamino}-cyclohexanecarboxylic acid ((R)-1-ethyl-pyrrolidin-3-yl)-amide] | 229 to 231 °C | 7.03 |
| CCCN1CCC[C@@H](NC(=O)[C@H]2CC[C@H](Nc3nccc(-n4ccc5c(OCCCS(C)(=O)=O)cccc54)n3)CC2)C1 [Compound 16, 4-{4-[4-(3-Methanesuflonyl-propoxy)-indol-1-yl]-pyrimidin-2-ylamino}-cyclohexanecarboxylic acid ((S)-1-propyl-piperidin-3-yl)-amide] | 185 to 190 °C | 6.79 |
| CC1(C(=O)O)CCN(C(=O)[C@H]2CC[C@H](Nc3nccc(-n4ccc5c(OCCCS(C)(=O)=O)cccc54)n3)CC2)CC1 [Compound 18, 1-(4-{4-[4-(3-Methanesulfonyl-propoxy)-indol-1-yl]-pyrimidin-2-ylamino}-cyclohexanecarbonyl)-4-methyl-piperidine-4-carboxylic acid] | 174 °C | 6.82 |

Results, then the compound that gave them:

| melting point | pIC50 [1] | SMILES |
| --- | --- | --- |
| 245 to 250 °C | – | C[C@H]1CN(C(=O)[C@H]2CC[C@H](Nc3nccc(-n4ncc5c(OCC6CCS(=O)(=O)C6)cccc54)n3)CC2)CCN1 (stereo partly drawn) (as salt: HCl) [Compound 25, (4-{4-[4-(1,1-Dioxo-tetrahydro-1λ^6-thiophen-3-ylmethoxy)-indazol-1-yl]-pyrimidin-2-ylamino}-cyclohexyl)-((S)-3-methyl-piperazin-1-yl)-methanone] |
| > 300 °C | – | CC1(C)CN(C(=O)[C@H]2CC[C@H](Nc3nccc(-n4ccc5c(OCC6CCS(=O)(=O)C6)cccc54)n3)CC2)CCN1 (stereo partly drawn) (as salt: HCl) [Compound 28, (3,3-Dimethyl-piperazin-1-yl)-(4-{4-[4-(1,1-dioxo-tetrahydro-1λ^6-thiophen-3-ylmethoxy)-indol-1-yl]-pyrimidin-2-ylamino}-cyclohexyl)-methanone] |
| 205 to 210 °C | – | CCN1CCCC(NC(=O)[C@H]2CC[C@H](Nc3nccc(-n4ccc5c(OCC6CCS(=O)(=O)C6)cccc54)n3)CC2)C1 (stereo partly drawn) (as salt: HCl) [Compound 29, 4-{4-[4-(1,1-Dioxo-tetrahydro-1λ^6-thiophen-3-ylmethoxy)-indol-1-yl]-pyrimidin-2-ylamino}-cyclohexanecarboxylic acid (1-ethyl-piperidin-3-yl)-amide] |
| 175 to 177 °C | 6.26 | CCOC(=O)CC1CCN(C(=O)[C@H]2CC[C@H](Nc3nccc(-n4ccc5c(OCCCS(C)(=O)=O)cccc54)n3)CC2)CC1 [Compound 1, [1-(4-{4-[4-(3-Methanesulfonyl-propoxy)-indol-1-yl]-pyrimidin-2-ylamino}-cyclohexanecarbonyl)-piperidin-4-yl]-acetic acid ethyl ester] |
| 219 to 221 °C | 7.04 | CS(=O)(=O)CCCOc1cccc2c1ccn2-c1ccnc(N[C@H]2CC[C@H](C(=O)N3CCC(C(N)=O)CC3)CC2)n1 [Compound 5, 1-(4-{4-[4-(3-Methanesulfonyl-propoxy)-indol-1-yl]-pyrimidin-2-ylamino}-cyclohexanecarbonyl)-piperidine-4-carboxylic acid amide] |
| 196 to 198 °C | 7.07 | CC(C)(O)C1CCN(C(=O)[C@H]2CC[C@H](Nc3nccc(-n4ccc5c(OCCCS(C)(=O)=O)cccc54)n3)CC2)CC1 [Compound 6, [4-(1-Hydroxy-1-methyl-ethyl)-piperidin-1-yl]-(4-{4-[4-(3-methanesulfonyl-propoxy)-indol-1-yl]-pyrimidin-2-ylamino}-cyclohexyl)-methanone] |
| 209 to 211 °C | 7.29 | CCOC(=O)C1CCN(C(=O)[C@H]2CC[C@H](Nc3nccc(-n4ccc5c(OCC6CCS(=O)(=O)C6)cccc54)n3)CC2)CC1 (stereo partly drawn) [Compound 7, 1-(4-{4-[4-(1,1-Dioxo-tetrahydro-1λ^6-thiophen-3-ylmethoxy)-indol-1-yl]-pyrimidin-2-ylamino}-cyclohexanecarbonyl)-piperidine-4-carboxylic acid ethyl ester] |
| 172 to 174 °C | 7.15 | O=C(O)C1CCN(C(=O)[C@H]2CC[C@H](Nc3nccc(-n4ccc5c(OCC6CCS(=O)(=O)C6)cccc54)n3)CC2)CC1 (stereo partly drawn) [Compound 8, 1-(4-{4-[4-(1,1-Dioxo-tetrahydro-1λ^6-thiophen-3-ylmethoxy)-indol-1-yl]-pyrimidin-2-ylamino}-cyclohexanecarbonyl)-piperidine-4-carboxylic acid] |
| 171 to 173 °C | 7.23 | CCOC(=O)C1(C)CCN(C(=O)[C@H]2CC[C@H](Nc3nccc(-n4ccc5c(OCCCS(C)(=O)=O)cccc54)n3)CC2)CC1 [Compound 10, 1-(4-{4-[4-(3-Methanesulfonyl-propoxy)-indol-1-yl]-pyrimidin-2-ylamino}-cyclohexanecarbonyl)-4-methyl-piperidine-4-carboxylic acid ethyl ester] |
